Here are results for eight compounds from ChEMBL document CHEMBL6087428, “Discovery of potent and selective factor XIa inhibitors incorporating triazole-based benzoic acid as novel P2' fragments: Molecular dynamics simulations and anticoagulant activity” (Eur J Med Chem, 2025).

One assay has as its target Trypsin (Homo sapiens, UniProt P07477+P07478+P35030). The assay is described as follows: Inhibition of human trypsin using Boc-Ile-Glu-Gly-Arg-AMC as substrate incubated for 15 mins by fluorescence reader analysis. The assay is classed as protein assay.
A further assay has as its target Coagulation factor X (Homo sapiens, UniProt P00742). Briefly: Inhibition of human Factor Xa using Boc-Ile-Glu-Gly-Arg-AMC as substrate incubated for 15 mins by fluorescence reader analysis.
Assay [1] relates to Plasma. The assay is described as follows: Anticoagulant activity in citrated human pooled plasma assessed as prolongation of activated partial thromboplastin time incubated for 5 mins by aPTT reagent based semi-automated coagulometric analysis. It is filed as functional.
Assay [2] deals with T1, Coagulation factor XI (Homo sapiens, UniProt P03951). Briefly: Inhibition of human Factor XIa using Boc-Glu(OBzl)-Ala-Arg-AMC assessed as AMC release preincubated for 15 mins followed by substrate addition and measured after 10 mins by microplate fluorescence reader analysis.
T1 sequence (P03951 19-387 limits assumed): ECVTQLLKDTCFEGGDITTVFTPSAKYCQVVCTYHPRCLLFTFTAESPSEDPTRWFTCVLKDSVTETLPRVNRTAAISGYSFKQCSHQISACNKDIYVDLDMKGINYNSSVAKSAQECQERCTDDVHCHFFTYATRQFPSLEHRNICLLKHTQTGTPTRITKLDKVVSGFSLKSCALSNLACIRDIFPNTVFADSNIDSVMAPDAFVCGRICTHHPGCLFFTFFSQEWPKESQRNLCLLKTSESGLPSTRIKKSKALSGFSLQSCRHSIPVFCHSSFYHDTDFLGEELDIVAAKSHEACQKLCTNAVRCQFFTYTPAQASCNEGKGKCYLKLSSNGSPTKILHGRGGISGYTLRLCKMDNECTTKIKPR
T1 sequence (P03951 388-625 limits assumed): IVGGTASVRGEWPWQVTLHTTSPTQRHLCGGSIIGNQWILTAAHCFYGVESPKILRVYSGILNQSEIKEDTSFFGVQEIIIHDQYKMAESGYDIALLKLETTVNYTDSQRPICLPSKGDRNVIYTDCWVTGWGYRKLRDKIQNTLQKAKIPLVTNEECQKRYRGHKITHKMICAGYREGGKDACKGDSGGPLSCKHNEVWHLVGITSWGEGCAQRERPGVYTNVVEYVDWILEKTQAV
In assay [3] the target is T2, Plasma kallikrein (Homo sapiens, UniProt P03952). The assay is described as follows: Inhibition of human PKa using H-Pro-Phe-Arg-AMC as substrate incubated for 15 mins by fluorescence reader analysis.
T2 sequence (P03952 20-390 limits assumed): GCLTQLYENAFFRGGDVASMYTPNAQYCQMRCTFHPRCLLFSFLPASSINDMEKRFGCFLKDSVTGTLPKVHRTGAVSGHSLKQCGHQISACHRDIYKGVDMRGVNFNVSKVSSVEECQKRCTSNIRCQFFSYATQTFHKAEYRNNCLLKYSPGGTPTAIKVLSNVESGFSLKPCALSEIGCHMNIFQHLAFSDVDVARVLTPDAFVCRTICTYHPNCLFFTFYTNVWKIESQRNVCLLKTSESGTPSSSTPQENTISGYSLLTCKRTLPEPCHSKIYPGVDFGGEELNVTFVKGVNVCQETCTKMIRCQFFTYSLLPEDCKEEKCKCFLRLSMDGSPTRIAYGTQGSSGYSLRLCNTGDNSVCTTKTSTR
T2 sequence (P03952 391-638 limits assumed): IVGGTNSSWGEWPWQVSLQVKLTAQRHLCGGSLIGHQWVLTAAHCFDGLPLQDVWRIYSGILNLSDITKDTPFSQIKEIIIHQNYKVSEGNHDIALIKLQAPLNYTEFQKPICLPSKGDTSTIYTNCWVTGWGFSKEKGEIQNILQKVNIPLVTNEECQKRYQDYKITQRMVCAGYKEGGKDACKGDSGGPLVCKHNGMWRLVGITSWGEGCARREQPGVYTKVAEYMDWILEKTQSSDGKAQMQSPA
A further assay concerns the target Prothrombin (Homo sapiens, UniProt P00734). Briefly: Inhibition of human thrombin using Boc-Asp(OBzl)-Pro-Arg-AMC as substrate incubated for 15 mins by fluorescence reader analysis.
Assay [4] relates to Plasma. The assay is described as follows: Anticoagulant activity in citrated human pooled plasma assessed as prolongation of prothrombin time incubated for 3 mins by PT reagent based semi-automated coagulometric analysis. The assay is classed as functional. The following applies: 0.05 h.
The species entered for assay [5] is Homo sapiens. Briefly: Selectivity ratio of IC50 for human trypsin using Boc-Ile-Glu-Gly-Arg-AMC as substrate to IC50 for human Factor XIa using Boc-Glu(OBzl)-Ala-Arg-AMC.
The species entered for assay [6] is Homo sapiens. Briefly: Selectivity ratio of IC50 for human thrombin using Boc-Asp(OBzl)-Pro-Arg-AMC as substrate to IC50 for human Factor XIa using Boc-Glu(OBzl)-Ala-Arg-AMC.
Assay [7] is filed under the species Homo sapiens. The assay is described as follows: Selectivity ratio of IC50 for human Factor Xa using Boc-Ile-Glu-Gly-Arg-AMC as substrate to IC50 for human Factor XIa using Boc-Glu(OBzl)-Ala-Arg-AMC.
For assay [8], the target named is T2, Plasma kallikrein. Briefly: Inhibition of Pka (unknown origin).
Assay [9] has as its target T1, Coagulation factor XI. Briefly: Inhibition of Factor XIa (unknown origin).

Chain of Coagulation factor X (P00742 41-179 limits assumed): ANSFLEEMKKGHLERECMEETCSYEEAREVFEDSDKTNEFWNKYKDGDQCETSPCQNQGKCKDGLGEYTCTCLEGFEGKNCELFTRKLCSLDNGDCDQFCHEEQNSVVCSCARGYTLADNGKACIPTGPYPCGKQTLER
Chain of Coagulation factor X (P00742 235-488 limits assumed): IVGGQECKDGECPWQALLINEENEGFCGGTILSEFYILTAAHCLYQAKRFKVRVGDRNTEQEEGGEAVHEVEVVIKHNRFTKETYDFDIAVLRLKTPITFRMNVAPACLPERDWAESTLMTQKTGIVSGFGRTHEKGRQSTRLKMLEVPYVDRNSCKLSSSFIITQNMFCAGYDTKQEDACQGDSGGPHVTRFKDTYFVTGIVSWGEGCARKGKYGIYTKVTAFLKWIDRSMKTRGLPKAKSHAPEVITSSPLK

As usually defined, the IC50 is the concentration needed to halve the response being measured. For the compound `CC[C@@H](c1cn(-c2ccc(C(=O)OC)cc2)nn1)n1cc(OC)c(-c2cc(Cl)ccc2-n2cc(Cl)nn2)cc1=O`, the IC50 worked out at 82.9 µM at Trypsin; 4.2 µM against Coagulation factor X; 0.032 µM on Coagulation factor XI [2]; 0.643 µM against Plasma kallikrein [3]; 67.7 µM against Prothrombin. For the same compound, the EC1.5 in the assay on Plasma [1] is 13.2 µM. Further, in the assay on Plasma [4], the EC2 is >100 µM.
With `COc1cn([C@@H](Cc2ccccc2)c2cn(-c3ccc(C(=O)O)cc3)nn2)c(=O)cc1-c1cc(Cl)ccc1-n1cc(Cl)nn1`, the IC50 is 14.1 µM on Trypsin; 46.8 µM against Coagulation factor X; 0.00152 µM at Coagulation factor XI [2]; 0.0731 µM against Plasma kallikrein [3]; 24.4 µM on Prothrombin. Moreover, the figures for the Ratio IC50 in the assay filed under Homo sapiens [5], in the assay filed under Homo sapiens [6] and in the assay listed under Homo sapiens [7] were > 9000, > 16000 and > 30000, respectively. Moreover, the EC1.5 with Plasma [1] came out at 0.75 µM. Further, the EC2 in the assay with Plasma [4] was >100 µM.
Consider `COc1cn([C@@H](Cc2ccccc2)c2cn(-c3ccc(C(=O)O)cc3)nn2)c(=O)cc1-c1cc(Cl)ccc1-n1cc(C(F)(F)F)nn1`, for which the IC50 was found to be 16.5 µM against Trypsin; 31.6 µM on Coagulation factor X; 0.00038 µM on Coagulation factor XI [2]; 0.0592 µM against Plasma kallikrein [3]; 51 µM at Prothrombin. In addition, the Ratio IC50 in the assay filed under Homo sapiens [5] is > 10000; in the assay listed under Homo sapiens [6], > 130000; in the assay filed under Homo sapiens [7] it was > 80000. In the assay with Plasma [1], the EC1.5 amounted to 0.55 µM. For the same compound, in the assay with Plasma [4], the EC2 is >100 µM.
Take `COc1cn(C(Cc2ccccc2)c2cn(-c3ccc(C(=O)O)cc3)nn2)c(=O)cc1-c1cc(Cl)ccc1-n1cc(C(F)(F)F)nn1` (configuration not stated): the IC50 against Trypsin was determined as 14.2 µM; against Coagulation factor X it was 41.2 µM; on Coagulation factor XI [2] it was 0.00131 µM; at Plasma kallikrein [3] it was 0.112 µM; against Prothrombin, 53.7 µM. In addition, the EC1.5 in the assay with Plasma [1] came out at 0.81 µM. The EC2 with Plasma [4] is >100 µM.
Consider `COc1cn([C@H](Cc2ccccc2)c2cn(-c3ccc(C(=O)O)cc3)nn2)c(=O)cc1-c1cc(Cl)ccc1-n1cc(Cl)nn1`, for which the IC50 is > 100 µM against Trypsin; > 100 µM against Coagulation factor X; 0.0963 µM at Coagulation factor XI [2]; 1.87 µM against Plasma kallikrein [3]; 46.9 µM at Prothrombin. The EC1.5 in the assay with Plasma [1] is 29 µM. Also, the EC2 in the assay on Plasma [4] is >100 µM.
Turning to `COc1cn([C@H](Cc2ccccc2)c2cn(-c3ccc(C(=O)O)cc3)nn2)c(=O)cc1-c1cc(Cl)ccc1-n1cc(C(F)(F)F)nn1`, the IC50 on Trypsin is 88.2 µM; against Coagulation factor X it was > 33 µM; on Coagulation factor XI [2], 0.102 µM; on Plasma kallikrein [3], 2.75 µM; against Prothrombin, > 33 µM. In addition, in the assay on Plasma [1], the EC1.5 amounted to 26.9 µM. For the same compound, the EC2 in the assay on Plasma [4] is >100 µM.
For `COc1cn(C(Cc2ccccc2)c2cn(-c3ccc(C(=O)O)cc3)nn2)c(=O)cc1-c1cc(Cl)ccc1-n1cc(Cl)nn1` (configuration not stated), the IC50 is 26.1 µM at Trypsin; 48.2 µM against Coagulation factor X; 0.00226 µM at Coagulation factor XI [2]; 0.141 µM at Plasma kallikrein [3]; 42 µM on Prothrombin. The EC1.5 with Plasma [1] stood at 1.41 µM. Also, the EC2 in the assay on Plasma [4] was >100 µM.
Consider `CCC(c1ccc2cc(C(=O)O)ccc2c1)n1cc(OC)c(-c2cc(Cl)ccc2-n2cc(C(F)(F)F)nn2)cc1=O` (configuration not stated), for which the IC50 at Plasma kallikrein [8] is 0.258 µM; against Coagulation factor XI [9] it was 0.0866 µM.
